According to article PMC5609127 (ACS Chemical Neuroscience, 2017):

How the values were obtained:
[1] = target: T1, RXRα (Homo sapiens, UniProt P19793); experiment: Fluorescence polarization; type: biochemical; settings: for agonist character in FP assay: agonist format
T1 sequence (P19793 227-458 limits assumed): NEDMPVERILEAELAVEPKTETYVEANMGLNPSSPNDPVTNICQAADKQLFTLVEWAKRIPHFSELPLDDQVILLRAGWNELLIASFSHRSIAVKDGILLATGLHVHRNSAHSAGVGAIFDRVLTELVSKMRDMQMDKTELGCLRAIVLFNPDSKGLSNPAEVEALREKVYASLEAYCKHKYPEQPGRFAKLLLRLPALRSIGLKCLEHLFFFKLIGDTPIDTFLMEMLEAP

[2] = target: T1, RXRα; experiment: Fluorescence polarization competition assay against LG100268; type: biochemical; settings: for antagonist character in FP competition assay: competition against LG100268 (50 nM)
[3] = target: T2, RXRα (Homo sapiens, UniProt P19793); experiment: M2H luciferase competition assay against LG100268; type: cell-based; settings: ligand in the 10–40 μM range after stimulation with LG100268 (10 nM)
T2 sequence (P19793 1-462): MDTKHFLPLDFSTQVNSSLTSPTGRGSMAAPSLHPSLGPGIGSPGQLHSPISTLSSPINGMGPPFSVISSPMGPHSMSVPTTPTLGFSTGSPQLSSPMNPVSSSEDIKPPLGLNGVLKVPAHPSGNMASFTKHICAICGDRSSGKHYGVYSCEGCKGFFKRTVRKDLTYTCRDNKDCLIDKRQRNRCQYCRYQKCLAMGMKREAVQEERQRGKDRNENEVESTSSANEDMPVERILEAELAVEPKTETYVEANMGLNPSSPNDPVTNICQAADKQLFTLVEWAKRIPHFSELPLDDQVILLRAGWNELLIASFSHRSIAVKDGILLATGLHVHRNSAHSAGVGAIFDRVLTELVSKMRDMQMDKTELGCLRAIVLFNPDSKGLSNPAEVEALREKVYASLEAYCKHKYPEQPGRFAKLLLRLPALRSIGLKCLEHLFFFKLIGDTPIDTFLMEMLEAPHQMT

[4] = target: T3, RXRα–RXRα homodimer (Homo sapiens, UniProt P19793); experiment: BRET2 homodimerization assay
T3 sequence (P19793 1-462) 1: T2 sequence (P19793 1-462)
T3 sequence (P19793 1-462) 2: T2 sequence (P19793 1-462)

[5] = target: RXRα–NURR1 heterodimer (Homo sapiens, UniProt P19793); experiment: BRET2 heterodimerization assay; settings: for NURR1–RXRα vs RXRα–RXRα selectivity: BRET2 potency ratio heterodimer vs homodimer
[6] = target: T2, RXRα; experiment: Mammalian two-hybrid; type: cell-based; settings: for agonist character in M2H assay: agonist format
[7] = FP/EC50, His6-RXRα-LBD 1 μM, fluorescein-labeled D22 coactivator peptide 0.1 μM

Sequence of RXRα–NURR1 heterodimer (P43354 whole entry partner, one chain of several): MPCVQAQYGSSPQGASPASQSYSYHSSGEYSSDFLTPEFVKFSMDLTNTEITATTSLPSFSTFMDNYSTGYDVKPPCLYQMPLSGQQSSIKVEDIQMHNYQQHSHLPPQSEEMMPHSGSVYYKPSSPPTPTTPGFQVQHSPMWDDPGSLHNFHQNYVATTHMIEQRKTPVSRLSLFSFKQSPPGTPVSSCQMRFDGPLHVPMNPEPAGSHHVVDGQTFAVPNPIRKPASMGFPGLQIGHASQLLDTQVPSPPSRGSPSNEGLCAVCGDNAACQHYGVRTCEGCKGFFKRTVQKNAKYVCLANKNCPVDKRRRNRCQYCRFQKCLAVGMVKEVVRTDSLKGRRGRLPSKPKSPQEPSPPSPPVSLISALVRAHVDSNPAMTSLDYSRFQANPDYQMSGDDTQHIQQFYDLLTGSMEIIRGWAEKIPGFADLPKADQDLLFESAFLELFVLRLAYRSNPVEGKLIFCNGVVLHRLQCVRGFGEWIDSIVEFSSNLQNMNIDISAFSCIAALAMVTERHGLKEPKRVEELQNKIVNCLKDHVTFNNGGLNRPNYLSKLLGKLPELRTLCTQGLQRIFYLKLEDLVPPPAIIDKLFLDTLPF

Structure (SMILES) | agonist character in FP assay [1] | IC50 [2] [µM] | antagonist character in FP competition assay [2] | effect in M2H competition assay [3] | EC50 [4] [µM] | bias toward RXRα homodimers over RXRα–NURR1 heterodimers (factor) ([4]; BRET2) | EC50 [5] [µM] | NURR1–RXRα vs RXRα–RXRα selectivity [5] [fold] | EC50 [1, 7] [µM] | EC50 ([1]; potency range in FP assay) [µM] | EC50 [6] [µM] | agonist character in M2H assay [6] | activity in BRET2 assay (RXRα–RXRα) [4] | activity in BRET2 assay (RXRα–NURR1) [5]
O=C(O)/C=C/c1ccc(O)c(-c2cccc(-c3ccccc3)c2)c1 [ligand 2, (E)-3-(6-Hydroxy-[1,1′:3′,1″-terphenyl]-3-yl)acrylic Acid] |  |  |  |  | 0.0316 |  | 0.00316 | 10 | 0.14 ± 0.023 |  | 0.085 ± 0.009 |  |  | 
O=C(O)/C=C/c1ccc(O)c(-c2cccc(Cc3ccccc3)c2)c1 [ligand 3, (E)-3-(3′-Benzyl-6-hydroxy-[1,1′-biphenyl]-3-yl)acrylic Acid] |  |  |  |  | 0.02 |  | 0.00251 | 8 | 0.142 ± 0.009 |  | 0.092 ± 0.036 |  |  | 
CCCc1cccc(-c2cc(/C=C/C(=O)O)ccc2O)c1 [ligand 5, (E)-3-(6-Hydroxy-3′-propyl-[1,1′-biphenyl]-3-yl)acrylic Acid] |  |  |  |  | 0.1 |  | 0.00501 | 20 | 0.17 ± 0.08 |  | 0.018 ± 0.01 |  |  | 
CC(C)c1cccc(-c2cc(/C=C/C(=O)O)ccc2O)c1 [ligand 4, (E)-3-(6-Hydroxy-3′-isopropyl-[1,1′-biphenyl]-3-yl)acrylic Acid] |  |  |  |  |  |  | 0.000794 | 25 | 0.089 ± 0.007 |  | 0.0058 ± 0.0018 |  |  | 

The next lines start with the values.

agonist character in FP assay [1] | IC50 [2] [µM] | antagonist character in FP competition assay [2] | effect in M2H competition assay [3] | EC50 [4] [µM] | bias toward RXRα homodimers over RXRα–NURR1 heterodimers (factor) ([4]; BRET2) | EC50 [5] [µM] | NURR1–RXRα vs RXRα–RXRα selectivity [5] [fold] | EC50 [1, 7] [µM] | EC50 ([1]; potency range in FP assay) [µM] | EC50 [6] [µM] | agonist character in M2H assay [6] | activity in BRET2 assay (RXRα–RXRα) [4] | activity in BRET2 assay (RXRα–NURR1) [5] | Structure (SMILES)
partial agonism | 48.5 ± 4.6 | partial antagonism | clear decrease in luciferase expression | 0.02 | 10 | 0.158 | 0.1 |  |  |  |  |  |  | C=CCc1ccc(OCCC)c(-c2cc(/C=C/C(=O)O)ccc2O)c1 [ligand 9, (E)-3-(5′-Allyl-6-hydroxy-2′-propoxy-[1,1′-biphenyl]-3-yl)acrylic Acid]
full agonism |  |  |  | 0.158 |  | 0.794 | 0.2 | 9.9 ± 2.5 | 1 to 10 | > 2.5 | full agonism |  |  | Cc1c(-c2ccccc2)cccc1-c1cc(/C=C/C(=O)O)ccc1O [ligand 6, (E)-3-(6-Hydroxy-2′-methyl-[1,1′:3′,1″-terphenyl]-3-yl)acrylic Acid]
 | 46.9 ± 5.9 | full antagonism | clear decrease in luciferase expression | > 10 |  | > 10 |  |  |  |  |  | did not show appreciable activity | did not show appreciable activity | C=CCc1ccc(OCCCCCC)c(-c2cc(/C=C/C(=O)O)ccc2O)c1 [ligand 10, (E)-3-(5′-Allyl-2′-(hexyloxy)-6-hydroxy-[1,1′-biphenyl]-3-yl)acrylic Acid]
full agonism |  |  |  | 0.0316 |  | 0.0794 | 0.4 | 1.02 ± 0.06 | 1 to 10 |  | full agonism |  |  | Cc1ccc(-c2ccccc2)cc1-c1cc(/C=C/C(=O)O)ccc1O [ligand 7, (E)-3-(6-Hydroxy-6′-methyl-[1,1′:3′,1″-terphenyl]-3-yl)acrylic Acid]
